# Experimental data: patent US20240000756A1, “METHODS AND COMPOUNDS FOR TREATMENT OF AUTISM SPECTRUM DISORDER” (Crestone, Inc., priority 2020, published 2024)
# Read-outs that look alike come from different tables or passages of the source.
# Experiments:
# [1] = Multiple ascending dose Phase 1b study, safety and pharmacokinetics in healthy adults; type: in vivo, human; settings: for half-life / Tmax: both sexes, human, plasma, oral
# Protocol: The study was performed at Quintiles Phase I Services in Overland Park, KS. […] The secondary objective was to determine the plasma pharmacokinetic characteristics of CRS3123 after multiple oral doses. An exploratory endpoint was the evaluation of the effect of CRS3123 on fecal microbiome.
# [2] = tested on: C. difficile; settings: C. difficile clinical isolates, agar dilution; cited from earlier work
# [3] = tested on: C. perfringens; settings: C. perfringens clinical isolates, agar dilution; cited from earlier work
# [4] = tested on: C. difficile; settings: cited from earlier work
# [5] = Single ascending dose Phase 1a study, safety and pharmacokinetics in healthy adults
# [6] = single dose, all TEAEs, combined
# [7] = single dose, related to CRS3123 treatment, combined
smiles,measurement,setting,value
O=c1cc(NCCCN[C@@H]2CCOc3c(Br)cc(Br)cc32)[nH]c2ccsc12 [CRS3123],"dose proportionality of exposure (Cmax, AUC0-12 Day 1; Cmax,ss, AUC0-τ Day 10)",[1]; 200-600 mg BID,less than proportional to the increase in dose
same,half-life,"[1]; following a single dose, across 3 dose groups, read-out: geometric mean t1/2",3.01 to 3.53 h
same,half-life,"[1]; following 10 days of twice daily administration, across 3 dose groups, read-out: geometric mean t1/2,ss",4.71 to 6.32 h
same,Tmax,"[1]; following 10 days of twice daily administration, across 3 dose groups, read-out: median Tmax,ss",1 to 2 h
same,Tmax,"[1]; following a single dose, across 3 dose groups (200, 400, 600 mg), read-out: median Tmax",2 to 3 h
same,QTcF interval,[1]; multiple ascending dose,no prolongation
same,overall safety and tolerability,"[1]; multiple ascending dose, 200-600 mg BID, 10 days",generally safe and well tolerated
same,accumulation,[1]; multiple twice daily dosing for 10 days,minimal accumulation
same,fate of unchanged drug,[1]; single and multiple dose,retained in the GI tract and excreted in feces
same,MIC90,[2],1.0 µg/mL
same,MIC90,[3],0.25 µg/mL
same,activity in hamster model of C. difficile infection,[4],active
same,"deaths, SAEs, severe or life-threatening TEAEs",[5]; single dose,"no deaths, SAEs, or severe or life-threatening TEAEs"
same,moderate TEAEs,[5]; single dose,7.4%
same,overall safety and tolerability,[5]; single dose study,safe and well-tolerated
same,subjects reporting treatment-emergent adverse events (TEAEs),"[5]; single dose, CRS3123-treated subjects combined",93.3%
same,TEAE frequency: abnormal urine analysis,[5]; [6],20.0%
same,TEAE frequency: decreased hemoglobin,[5]; [6],23.3%
same,TEAE frequency: headache,[5]; [6],20.0%
same,TEAE frequency: positive urine leukocyte esterase,[5]; [6],16.7%
same,treatment-related TEAE: abnormal urine analysis,[5]; [7],16.7%
same,treatment-related TEAE: decreased blood calcium,[5]; [7],13.3%
same,treatment-related TEAE: decreased hemoglobin,[5]; [7],16.7%
same,treatment-related TEAE: headache,[5]; [7],20.0%
same,dose proportionality of systemic exposure,[5]; single oral dose 100-1200 mg,did not appear to be dose-proportional
same,fraction absorbed,"[5]; single oral dose 100-1200 mg, healthy fasted subjects",low but detectable fraction
same,metabolism,"[5]; single oral dose, mass spectral analysis",metabolized in the body via glucuronidation
